# Data reported in patent US6784192B2, “Piperidine compound and pharmaceutical composition thereof” (Eisai Co., Ltd., priority 2000, dated 2004).
# Tests used:
# [1] = system: atrial muscle of anesthetized thoracotomy dog; assay: Effective refractory period (ERP) in anesthetized thoracotomy dog; assay type: in vivo; settings: for Measurement Value of ERP: mean
# Excerpt: (1) An anesthetized thoracotomy dog was used for the present experiment. After opening brisket at a median line and cutting epicardium, bipolar electrodes for determination of a potential wave form were respectively stitched at the free walls of right and left atriums. Further, a wire electrode was inserted in the free wall of a right atrium to be fixed and used for electrical simulation.
# (2) A program electrical stimulation equipment was connected with the electrode for electrical stimulation at the right atrium, the electrical stimulation was carried out at a stimulation periodical length of 500 mess, and a threshold for the electrical stimulation was measured. The electrical stimulation intensity for the experiments below was set to carry out stimulation at 3-fold of this threshold. However, when the threshold was 0.7 V or less, the electrical stimulation was carried out at 2.0 V. Effective refractory period (ERP) provided early premature stimulation (S2) after the basic stimulation (S1) of 10 times, and the longest linking period in which atrium potential was not generated by the premature stimulation was referred to as ERP, while shortening the linking period (S1-S2) by 5 mess. Similar experiments were also carried out for the respective basic stimulation length (BCL) of 400, 300, 250 and 200 mess (control experiment: 1 series). After carrying out 2 times or more of the control experiments and confirming that ERP was stable, the tested substance was subsequently administered, and similar measurement was carried out. After the tested substance was administered once intravenously for 5 minutes, its keeping dose was subsequently administered intravenously. After 10 minutes of the administration start of the keeping dose, ERP was measured in the respective stimulation frequency. After completion of the one series of measurements, the concentration of the tested substance was increased and the similar experiments were repeated. The ERP and conduction time in the atrium in the respective stimulation frequency were compared with various indices under control condition. The result is shown by mean.
# rabbit atrial muscle = assay: Assessment for rabbit atrial muscle, Vmax; settings: Oryctolagus cuniculus, 0.25 h; Test Example 4; right atrial muscle, stimulation frequency 4 Hz, 15 minutes
# Procedure: The specimen of the right atrial muscle which was enucleated from rabbit was used for the present experiment. The electrical stimulation was applied for the right atrial muscle which was enucleated, under conditions: a stimulation duration of 1 mess; a stimulation frequency of 4 Hz; and a stimulation intensity of about 1.2-fold of the threshold. The stimulation was provided from 30 minutes to 60 minutes before start of the experiment, and the condition of the specimen was stabilized. The action potential was recorded according to a glass microelectrode method. 3 M KCl was charged in the glass electrode, inserted in the specimen of the right atrium, and the action potential was recorded. Vmax is the parameter of the maximum upstroke slope of the action potential recorded, and a value which was automatically calculated by an action potential analysis soft (CAPA 1.23 manufactured by Physiotec. Co., Ltd.) was used. After the action potential in a normal Tyrode solution was recorded as control, the action potential after flowing the tested substances at respective concentrations for 15 minutes was recorded. The action of the tested substance for Vmax was calculated as an IC50 value.
# [2] = system: spontaneous nerve discharge of cut left saphenous nerve; assay: Suppression of spontaneous nerve discharge (ectopic firing); assay type: in vivo; settings: Test Example 5, rat, intravenous catheter, urethane anesthetized; for ED50: read-out: Ectopic Firing (ID50 mg/kg)
# Procedure: In order to assess the suppression action for spontaneous nerve discharge, the experiment was carried out by a method below, referring to “Burchiel, K J., Exp. Nuerol., 102, 249-253 (1988)”. Namely, for the rat in which spontaneous discharge was observed, the left saphenous nerve was cut off nearby knee articulatio before 1 week or more, and around 3 mm of the nerve was cut off so that the nerve was not adhered again. The left saphenous nerve was exposed under urethane (1 g/kg body weight) anesthetized, and about 1 cm of adjacent portion from the cut portion was peeled from a periphery tissue. Further, a catheter was preliminarily inserted in the vein of a right neck for administration of a compound. The peeled nerve was mounted on a platinum hook electrode, and liquid paraffin was put on it so that the nerve was not dried. The electrode was connected with a fine electrode amplifier, and the value was recorded on a computer through an AD/converter from an oscilloscope. The nerve discharge recorded was assessed by the number of ignition per 10 seconds using an analysis soft (AcqKnowledge).
# [3] = dose 0.1 mg/kg intravenously, BCL 200 msec
# [4] = dose 0.1 mg/kg intravenously, BCL 300 msec
# [5] = dose 0.1 mg/kg intravenously, BCL 400 msec
# [6] = dose 0.1 mg/kg intravenously, BCL 500 msec
# [7] = dose 0.3 mg/kg intravenously, BCL 200 msec
# [8] = dose 0.3 mg/kg intravenously, BCL 300 msec
# [9] = dose 0.3 mg/kg intravenously, BCL 400 msec
# [10] = dose 0.3 mg/kg intravenously, BCL 500 msec
# [11] = dose 1 mg/kg intravenously, BCL 200 msec
# [12] = dose 1 mg/kg intravenously, BCL 300 msec
# [13] = dose 1 mg/kg intravenously, BCL 400 msec
# [14] = dose 1 mg/kg intravenously, BCL 500 msec
# [15] = dose 0.1 mg/kg intravenously, BCL 250 msec
# [16] = dose 0.3 mg/kg intravenously, BCL 250 msec
SMILES,"Measurement Value of ERP [1, 3] [ms]","Measurement Value of ERP [1, 4] [ms]","Measurement Value of ERP [1, 5] [ms]","Measurement Value of ERP [1, 6] [ms]","Measurement Value of ERP [1, 7] [ms]","Measurement Value of ERP [1, 8] [ms]","Measurement Value of ERP [1, 9] [ms]","Measurement Value of ERP [1, 10] [ms]","Measurement Value of ERP [1, 12] [ms]","Measurement Value of ERP [1, 13] [ms]","Measurement Value of ERP [1, 14] [ms]",also measured
"O=c1[nH]cccc1CN1CCC(CCc2nccs2)CC1 [Example 109, 1-[(2-Oxo-1,2-dihydro-3-pyridinyl)methyl]-4-[2-(1,3-thiazol-2-yl)ethyl]piperidine]",110,140,165,185,130,155,185,200,175,215,235,"Measurement Value of ERP [1, 11]: 150 ms"
"COc1ncccc1CCC1CCN(Cc2ccc[nH]c2=O)CC1 [Example 118, 1-[(2-Oxo-1,2-dihydro-3-pyridinyl)methyl]-4-[2-(2-methoxy-3-pyridyl)ethyl]piperidine]",–,–,–,–,130,160,180,190,190,215,220,–
"O=c1[nH]cccc1CN1CCC(CCc2cccc3c2OCO3)CC1 [Example 128, 1-[(2-Oxo-1,2-dihydro-3-pyridinyl)methyl]-4-(2,3-methylenedioxyphenethyl)piperidine]",125,160,175,185,155,180,195,210,215,250,280,–
"COc1ccccc1C(=O)CC1CCN(Cc2ccc[nH]c2=O)CC1 [Example 144, 1-[(2-Oxo-1,2-dihydro-3-pyridinyl)methyl]-4-[2-(2-methoxyphenyl)-2-oxoethyl]piperidine]",140,165,190,200,155,180,200,215,–,–,–,"Measurement Value of ERP [1, 15]: 155 ms; Measurement Value of ERP [1, 16]: 165 ms"
"C#CCN(CC#C)C(=O)C[C@H]1CCCCN1Cc1ccc[nH]c1=O [Example 191, N1,N1-Di(2-propynyl)-2-[(2R)-1-[(2-oxo-1,2-dihydro-3-pyridinyl)methyl]-2-piperidyl]acetamide]",–,–,–,–,135,155,165,175,170,185,195,"Percent change in ERP versus pre-dose control ([1]; dose 0.3 mg/kg, BCL 300 msec): 14.8%; Percent change in ERP versus pre-dose control ([1]; dose 0.3 mg/kg, BCL 400 msec): 6.5%; Percent change in ERP versus pre-dose control ([1]; dose 0.3 mg/kg, BCL 500 msec): 9.4%; Measurement Value of ERP [1, 11]: 150 ms; Percent change in ERP versus pre-dose control ([1]; dose 1 mg/kg, BCL 300 msec): 25.9%; Percent change in ERP versus pre-dose control ([1]; dose 1 mg/kg, BCL 400 msec): 19.4%; Percent change in ERP versus pre-dose control ([1]; dose 1 mg/kg, BCL 500 msec): 21.9%"
"C#CCN(CC#C)C(=O)C[C@H]1CCCCN1Cc1cccn(CC(F)(F)F)c1=O [Example 194, N1,N1-Di(2-propynyl)-2-[(2R)-1-[[2-oxo-1-(2,2,2-trifluoroethyl)-1,2-dihydro-3-pyridinyl)methyl]hexahydro-2-pyridinyl]acetamide]",110,135,155,165,125,145,165,175,170,195,210,"Measurement Value of ERP [1, 15]: 120 ms; Measurement Value of ERP [1, 16]: 126 ms; Measurement Value of ERP [1, 11]: 145 ms; Measurement Value of ERP ([1]; dose 1 mg/kg intravenously, BCL 250 msec): 155 ms"
"O=c1[nH]cc(Cl)cc1CN1CCC(/C=C/c2ccccc2F)CC1 [Example 334, 1-[(5-Chloro-2-oxo-1,2-dihydro-3-pyridinyl)methyl]-4-[(E)-2-(2-fluorophenyl)-1-ethenyl]piperidine]",–,–,–,–,–,–,–,–,–,–,–,IC50 (rabbit atrial muscle): 17.5 µM; ED50 [2]: 0.03 mg/kg
"Cc1ccccc1/C=C/C1CCN(Cc2cc(Cl)c[nH]c2=O)CC1 [Example 337, 1-[(5-Chloro-2-oxo-1,2-dihydro-3-pyridinyl)methyl]-4-[(E)-2-(2-methylphenyl)-1-ethenyl]piperidine]",–,–,–,–,–,–,–,–,–,–,–,ED50 [2]: 0.3 mg/kg
"O=C(O)C(=O)O.O=c1[nH]cc(F)cc1CN1CCC(/C=C/c2ccccc2OCC2CCCCC2)CC1 [Example 345, 1-[(5-Fluoro-2-oxo-1,2-dihydro-3-pyridinyl)methyl]-4-[(E)-2-[(2-cyclohexylmethyloxy)phenyl]-1-ethenyl]piperidine oxalate]",–,–,–,–,–,–,–,–,–,–,–,Ectopic Firing (ID50 mg/kg) [2]: 0.4 mg/kg
"O=C(O)C(=O)O.O=c1[nH]cccc1CN1CCC(C#Cc2ccccc2OCC2CCCCC2)CC1 [Example 349, 1-[(2-Oxo-1,2-dihydro-3-pyridinyl)methyl]-4-[2-[(2-cyclohexylmethyloxy)phenyl]-1-ethynyl]piperidine oxalate]",–,–,–,–,–,–,–,–,–,–,–,Ectopic Firing (ID50 mg/kg) [2]: 0.17 mg/kg
"N#Cc1c[nH]c(=O)c(CN2CCC(/C=C/c3ccccc3F)CC2)c1 [Example 351, 1-[(5-Cyano-2-oxo-1,2-dihydro-3-pyridinyl)methyl]-4-[(E)-2-(2-fluorophenyl)-1-ethenyl]piperidine]",–,–,–,–,–,–,–,–,–,–,–,ED50 [2]: 0.17 mg/kg
